Patent US12503461B2, “Pesticidally active heterocyclic derivatives with sulfur and sulfoximine containing substituents” (SYNGENTA CROP PROTECTION AG, priority 2019, dated 2025)

How the values were obtained:
Type in all cases: in vivo
[1] = system: Spodoptera littoralis (Egyptian Cotton Leaf Worm); experiment: Example B7: Spodoptera littoralis (Egyptian cotton leaf worm), sprayed cotton leaf discs, L1 larvae; details: foliar, 72 h, application rate of 200 ppm, 3 days after infestation, in comparison to untreated samples
Experimental: Example B7: Spodoptera littoralis (Egyptian Cotton Leaf Worm
Cotton leaf discs were placed onto agar in 24-well microtiter plates and sprayed with aqueous test solutions prepared from 10′000 ppm DMSO stock solutions. After drying the leaf discs were infested with five L1 larvae. The samples were assessed for mortality, anti-feeding effect, and growth inhibition in comparison to untreated samples 3 days after infestation. Control of Spodoptera littoralis by a test sample is given when at least one of the categories mortality, anti-feedant effect, and growth inhibition is higher than the untreated sample.

[2] = system: Plutella xylostella (Diamond Back Moth); experiment: Example B4: Plutella xylostella (diamond back moth), treated artificial diet, eggs; details: 192 h, application rate of 200 ppm, 8 days after infestation, in comparison to untreated samples, read-out: effect in at least one of the two categories (mortality or growth inhibition)
Experimental: Example B4: Plutella xylostella (Diamond Back Moth
24-well microtiter plates with artificial diet were treated with aqueous test solutions prepared from 10′000 ppm DMSO stock solutions by pipetting. After drying, Plutella eggs were pipetted through a plastic stencil onto a gel blotting paper and the plate was closed with it. The samples were assessed for mortality and growth inhibition in comparison to untreated samples 8 days after infestation.

[3] = system: Myzus persicae (Green Peach Aphid); experiment: Example B5: Myzus persicae (green peach aphid), feeding/contact activity, sprayed sunflower leaf discs; details: foliar, 144 h, application rate of 200 ppm, aphid population of mixed ages, 6 days after infestation
Experimental: Example B5: Myzus persicae (Green Peach Aphid). Feeding/Contact Activity
Sunflower leaf discs were placed onto agar in a 24-well microtiter plate and sprayed with aqueous test solutions prepared from 10′000 ppm DMSO stock solutions. After drying, the leaf discs were infested with an aphid population of mixed ages. The samples were assessed for mortality 6 days after infestation.

[4] = system: Diabrotica balteata (Corn Root Worm); experiment: Example B1: Diabrotica balteata (corn root worm), sprayed maize sprouts on agar, L2 larvae; details: 96 h, application rate of 200 ppm, 4 days after infestation, in comparison to untreated samples, read-out: effect in at least one of the two categories (mortality or growth inhibition)
Experimental: Example B1: Diabrotica balteata (Corn Root Worm
Maize sprouts placed onto an agar layer in 24-well microtiter plates were treated with aqueous test solutions prepared from 10′000 ppm DMSO stock solutions by spraying. After drying, the plates were infested with L2 larvae (6 to 10 per well). The samples were assessed for mortality and growth inhibition in comparison to untreated samples 4 days after infestation.

[5] = system: Euschistus heros (Neotropical Brown Stink Bug); experiment: Example B2: Euschistus heros (neotropical brown stink bug), sprayed soybean leaves, N2 nymphs; details: 120 h, application rate of 200 ppm, 5 days after infestation, in comparison to untreated samples, read-out: effect in at least one of the two categories (mortality or growth inhibition)
Experimental: Example B2: Euschistus heros (Neotropical Brown Stink Bug
Soybean leaves on agar in 24-well microtiter plates were sprayed with aqueous test solutions prepared from 10′000 ppm DMSO stock solutions. After drying the leaves were infested with N2 nymphs. The samples were assessed for mortality and growth inhibition in comparison to untreated samples 5 days after infestation.

CCN=S(=O)(c1ccc2oc(-c3ncc(N(C)C(C)=O)cc3S(=O)(=O)CC)nc2c1)C(F)(F)F (stereo not drawn) [P3, N-[5-ethylsulfonyl-6-[5-[N-ethyl-S-(trifluoromethyl)sulfonimidoyl]-1,3-benzoxazol-2-yl]-3-pyridyl]-N-methyl-acetamide]
≥ 80%: percent control (mortality, anti-feeding effect or growth inhibition) at 200 ppm [1] | percent effect (mortality or growth inhibition) at 200 ppm [2] | mortality at 200 ppm [3] | percent effect (mortality or growth inhibition) at 200 ppm [4]

CCS(=O)(=O)c1cc(Oc2ccccn2)cnc1-c1nc2cc(S(=N)(=O)C(F)(F)F)ccc2o1 (stereo not drawn) [P9, [2-[3-ethylsulfonyl-5-(2-pyridyloxy)-2-pyridyl]-1,3-benzoxazol-5-yl]-imino-oxo-(trifluoromethyl)-λ^6-sulfane]
≥ 80%: percent control (mortality, anti-feeding effect or growth inhibition) at 200 ppm [1] | effect (mortality or growth inhibition) at 200 ppm [5] | percent effect (mortality or growth inhibition) at 200 ppm [2] | mortality at 200 ppm [3] | percent effect (mortality or growth inhibition) at 200 ppm [4]

CCN=S(=O)(c1ccc2oc(-c3ncc(C4CC4)cc3S(=O)(=O)CC)nc2c1)C(F)(F)F (stereo not drawn) [P11, [2-(5-cyclopropyl-3-ethylsulfonyl-2-pyridyl)-1,3-benzoxazol-5-yl]-ethylimino-oxo-(trifluoromethyl)-λ^6-sulfane]
≥ 80%: percent control (mortality, anti-feeding effect or growth inhibition) at 200 ppm [1] | effect (mortality or growth inhibition) at 200 ppm [5] | percent effect (mortality or growth inhibition) at 200 ppm [2] | mortality at 200 ppm [3] | percent effect (mortality or growth inhibition) at 200 ppm [4]

CCS(=O)(=O)c1cccnc1-c1nc2cc(S(=O)(=NC3CC3)C(F)(F)F)ccc2o1 (stereo not drawn) [P13, cyclopropylimino-[2-(3-ethylsulfonyl-2-pyridyl)-1,3-benzoxazol-5-yl]-oxo-(trifluoromethyl)-λ^6-sulfane]
≥ 80%: percent control (mortality, anti-feeding effect or growth inhibition) at 200 ppm [1] | percent effect (mortality or growth inhibition) at 200 ppm [2] | mortality at 200 ppm [3] | percent effect (mortality or growth inhibition) at 200 ppm [4]

CCS(=O)(=O)c1cccnc1-c1nc2cc(S(=O)(=NC)C(F)(F)F)ccc2o1 (stereo not drawn) [P18, [2-(3-ethylsulfonyl-2-pyridyl)-1,3-benzoxazol-5-yl]-methylimino-oxo-(trifluoromethyl)-λ^6-sulfane]
≥ 80%: percent control (mortality, anti-feeding effect or growth inhibition) at 200 ppm [1] | effect (mortality or growth inhibition) at 200 ppm [5] | percent effect (mortality or growth inhibition) at 200 ppm [2] | mortality at 200 ppm [3] | percent effect (mortality or growth inhibition) at 200 ppm [4]

CCN=S(=O)(c1ccc2oc(-c3ncccc3S(=O)(=O)CC)nc2c1)C(F)(F)F (stereo not drawn) [P19, ethylimino-[2-(3-ethylsulfonyl-2-pyridyl)-1,3-benzoxazol-5-yl]-oxo-(trifluoromethyl)-λ^6-sulfane]
≥ 80%: percent control (mortality, anti-feeding effect or growth inhibition) at 200 ppm [1] | effect (mortality or growth inhibition) at 200 ppm [5] | percent effect (mortality or growth inhibition) at 200 ppm [2] | mortality at 200 ppm [3] | percent effect (mortality or growth inhibition) at 200 ppm [4]

CCS(=O)(=O)c1cc(C2(C#N)CC2)cnc1-c1nc2cc(S(=O)(=NC)C(F)(F)F)ccc2o1 (stereo not drawn) [P29, 1-[5-ethylsulfonyl-6-[5-[N-methyl-S-(trifluoromethyl)sulfonimidoyl]-1,3-benzoxazol-2-yl]-3-pyridyl]cyclopropanecarbonitrile]
≥ 80%: percent control (mortality, anti-feeding effect or growth inhibition) at 200 ppm [1] | effect (mortality or growth inhibition) at 200 ppm [5] | percent effect (mortality or growth inhibition) at 200 ppm [2] | percent effect (mortality or growth inhibition) at 200 ppm [4]

CCN=S(=O)(c1ccc2oc(-c3ncc(-c4ncccn4)cc3S(=O)(=O)CC)nc2c1)C(F)(F)F (stereo not drawn) [P35, ethylimino-[2-(3-ethylsulfonyl-5-pyrimidin-2-yl-2-pyridyl)-1,3-benzoxazol-5-yl]-oxo-(trifluoromethyl)-λ^6-sulfane]
≥ 80%: percent control (mortality, anti-feeding effect or growth inhibition) at 200 ppm [1] | effect (mortality or growth inhibition) at 200 ppm [5] | percent effect (mortality or growth inhibition) at 200 ppm [2] | percent effect (mortality or growth inhibition) at 200 ppm [4]

CCS(=O)(=O)c1cc(-c2ncccn2)cnc1-c1nc2cc(S(=N)(=O)C(F)(F)F)ccc2o1 (stereo not drawn) [P36, [2-(3-ethylsulfonyl-5-pyrimidin-2-yl-2-pyridyl)-1,3-benzoxazol-5-yl]-imino-oxo-(trifluoromethyl)-λ^6-sulfane]
≥ 80%: percent control (mortality, anti-feeding effect or growth inhibition) at 200 ppm [1] | effect (mortality or growth inhibition) at 200 ppm [5] | percent effect (mortality or growth inhibition) at 200 ppm [2] | percent effect (mortality or growth inhibition) at 200 ppm [4]

CCS(=O)(=O)c1cc(-c2ncc(Cl)cn2)cnc1-c1nc2cc(S(=N)(=O)C(F)(F)F)ccc2o1 (stereo not drawn) [P42, [2-[5-(5-chloropyrimidin-2-yl)-3-ethylsulfonyl-2-pyridyl]-1,3-benzoxazol-5-yl]-imino-oxo-(trifluoromethyl)-λ^6-sulfane]
≥ 80%: percent control (mortality, anti-feeding effect or growth inhibition) at 200 ppm [1] | effect (mortality or growth inhibition) at 200 ppm [5] | percent effect (mortality or growth inhibition) at 200 ppm [2] | percent effect (mortality or growth inhibition) at 200 ppm [4]

CCS(=O)(=O)c1ccc(-n2cncn2)nc1-c1nc2cc(S(=N)(=O)C(F)(F)F)ccc2n1C (stereo not drawn) [P44, [2-[3-ethylsulfonyl-6-(1,2,4-triazol-1-yl)-2-pyridyl]-1-methyl-benzimidazol-5-yl]-imino-oxo-(trifluoromethyl)-λ^6-sulfane]
≥ 80%: percent control (mortality, anti-feeding effect or growth inhibition) at 200 ppm [1] | percent effect (mortality or growth inhibition) at 200 ppm [2] | mortality at 200 ppm [3] | percent effect (mortality or growth inhibition) at 200 ppm [4]

CCN=S(=O)(c1ccc2c(c1)nc(-c1nc(-n3cncn3)ccc1S(=O)(=O)CC)n2C)C(F)(F)F (stereo not drawn) [P45, ethylimino-[2-[3-ethylsulfonyl-6-(1,2,4-triazol-1-yl)-2-pyridyl]-1-methyl-benzimidazol-5-yl]-oxo-(trifluoromethyl)-λ^6-sulfane]
≥ 80%: percent control (mortality, anti-feeding effect or growth inhibition) at 200 ppm [1] | percent effect (mortality or growth inhibition) at 200 ppm [2] | mortality at 200 ppm [3] | percent effect (mortality or growth inhibition) at 200 ppm [4]

CCS(=O)(=O)c1cc(Oc2ccccn2)cnc1-c1nc2cc(S(=N)(=O)C(F)(F)F)ccc2n1C (stereo not drawn) [P50, [2-[3-ethylsulfonyl-5-(2-pyridyloxy)-2-pyridyl]-1-methyl-benzimidazol-5-yl]-imino-oxo-(trifluoromethyl)-λ^6-sulfane]
≥ 80%: percent control (mortality, anti-feeding effect or growth inhibition) at 200 ppm [1] | effect (mortality or growth inhibition) at 200 ppm [5] | percent effect (mortality or growth inhibition) at 200 ppm [2] | mortality at 200 ppm [3] | percent effect (mortality or growth inhibition) at 200 ppm [4]

CCN=S(=O)(c1ccc2c(c1)nc(-c1ncc(Oc3ccccn3)cc1S(=O)(=O)CC)n2C)C(F)(F)F (stereo not drawn) [P51, ethylimino-[2-[3-ethylsulfonyl-5-(2-pyridyloxy)-2-pyridyl]-1-methyl-benzimidazol-5-yl]-oxo-(trifluoromethyl)-λ^6-sulfane]
≥ 80%: percent control (mortality, anti-feeding effect or growth inhibition) at 200 ppm [1] | effect (mortality or growth inhibition) at 200 ppm [5] | percent effect (mortality or growth inhibition) at 200 ppm [2] | mortality at 200 ppm [3] | percent effect (mortality or growth inhibition) at 200 ppm [4]

CCS(=O)(=O)c1cc(-c2ncc(C#N)cn2)cnc1-c1nc2cc(S(=N)(=O)C(F)(F)F)ccc2n1C (stereo not drawn) [P52, 2-[5-ethylsulfonyl-6-[1-methyl-5-(trifluoromethylsulfonimidoyl)benzimidazol-2-yl]-3-pyridyl]pyrimidine-5-carbonitrile]
≥ 80%: percent control (mortality, anti-feeding effect or growth inhibition) at 200 ppm [1] | effect (mortality or growth inhibition) at 200 ppm [5] | percent effect (mortality or growth inhibition) at 200 ppm [2] | mortality at 200 ppm [3] | percent effect (mortality or growth inhibition) at 200 ppm [4]

CCN=S(=O)(c1ccc2c(c1)nc(-c1ncc(-c3ncc(C#N)cn3)cc1S(=O)(=O)CC)n2C)C(F)(F)F (stereo not drawn) [P53, 2-[5-ethylsulfonyl-6-[5-[N-ethyl-S-(trifluoromethyl)sulfonimidoyl]-1-methyl-benzimidazol-2-yl]-3-pyridyl]pyrimidine-5-carbonitrile]
≥ 80%: percent control (mortality, anti-feeding effect or growth inhibition) at 200 ppm [1] | effect (mortality or growth inhibition) at 200 ppm [5] | percent effect (mortality or growth inhibition) at 200 ppm [2] | mortality at 200 ppm [3] | percent effect (mortality or growth inhibition) at 200 ppm [4]
